Holding throughout (conditions): Compound concentration 10.0 uM
Assay [1] concerns the target T1, GABA-A receptor; anion channel (Rattus norvegicus) (UniProt O09028+P15431+P18506+P18508+P19969+P20236+P23574+P23576+P28471+P28473+P30191+P62813+P63079+P63138+Q91ZM7+Q9ES14).
The target in assay [2] is Beta-2 adrenergic receptor (Homo sapiens) (UniProt P07550).
Assay [3] has as its target Histamine H1 receptor (Homo sapiens) (UniProt P35367).
Assay [4] concerns the target Sodium-dependent noradrenaline transporter (Homo sapiens) (UniProt P23975).
Assay [5] has as its target 5-hydroxytryptamine receptor 1B (Homo sapiens) (UniProt P28222).
Assay [6] has as its target T2, 5-hydroxytryptamine receptor 1A (Homo sapiens) (UniProt P08908).
T2 sequence (whole entry): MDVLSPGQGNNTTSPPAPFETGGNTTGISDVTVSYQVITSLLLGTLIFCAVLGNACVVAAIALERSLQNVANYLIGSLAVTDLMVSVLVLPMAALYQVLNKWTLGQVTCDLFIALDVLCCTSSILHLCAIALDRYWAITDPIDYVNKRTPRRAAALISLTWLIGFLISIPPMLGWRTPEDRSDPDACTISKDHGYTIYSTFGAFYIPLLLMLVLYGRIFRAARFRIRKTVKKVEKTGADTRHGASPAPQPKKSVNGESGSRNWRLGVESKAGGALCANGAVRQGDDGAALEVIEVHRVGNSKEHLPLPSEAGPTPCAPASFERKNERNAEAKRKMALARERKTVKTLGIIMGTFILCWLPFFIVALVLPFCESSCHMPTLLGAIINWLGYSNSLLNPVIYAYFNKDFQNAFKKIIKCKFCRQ

For assay [7], the target named is T3, 5-hydroxytryptamine receptor 3A (Homo sapiens) (UniProt P46098).
T3 sequence (whole entry): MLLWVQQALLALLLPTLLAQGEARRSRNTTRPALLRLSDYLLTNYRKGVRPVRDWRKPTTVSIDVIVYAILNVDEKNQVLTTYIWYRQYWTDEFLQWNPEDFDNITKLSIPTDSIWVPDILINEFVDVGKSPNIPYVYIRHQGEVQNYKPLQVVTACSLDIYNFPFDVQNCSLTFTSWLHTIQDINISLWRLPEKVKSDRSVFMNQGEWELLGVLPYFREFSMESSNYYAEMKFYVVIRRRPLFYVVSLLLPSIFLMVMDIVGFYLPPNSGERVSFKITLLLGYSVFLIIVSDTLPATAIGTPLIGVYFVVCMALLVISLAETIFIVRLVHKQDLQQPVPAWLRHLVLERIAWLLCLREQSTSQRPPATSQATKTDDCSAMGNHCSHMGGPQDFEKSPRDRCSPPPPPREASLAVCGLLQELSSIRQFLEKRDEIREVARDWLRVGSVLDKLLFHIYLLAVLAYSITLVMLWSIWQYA

Assay [8] concerns the target T4, Muscarinic acetylcholine receptor M1 (Homo sapiens) (UniProt P11229).
T4 sequence (whole entry): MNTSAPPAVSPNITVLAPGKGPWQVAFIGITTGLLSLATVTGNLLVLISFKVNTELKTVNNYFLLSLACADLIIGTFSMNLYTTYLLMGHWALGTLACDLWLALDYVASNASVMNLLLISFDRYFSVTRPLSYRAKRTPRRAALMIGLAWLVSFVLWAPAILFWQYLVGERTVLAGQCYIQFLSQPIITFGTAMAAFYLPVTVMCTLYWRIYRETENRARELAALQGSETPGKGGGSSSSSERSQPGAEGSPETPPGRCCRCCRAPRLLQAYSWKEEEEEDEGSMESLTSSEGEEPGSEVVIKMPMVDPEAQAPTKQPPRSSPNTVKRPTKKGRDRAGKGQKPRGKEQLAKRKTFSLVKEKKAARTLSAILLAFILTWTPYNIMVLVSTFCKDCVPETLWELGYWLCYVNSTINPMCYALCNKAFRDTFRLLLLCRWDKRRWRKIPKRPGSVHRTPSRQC

The target in assay [9] is T5, 5-hydroxytryptamine receptor 2C (Homo sapiens) (UniProt P28335).
T5 sequence (whole entry): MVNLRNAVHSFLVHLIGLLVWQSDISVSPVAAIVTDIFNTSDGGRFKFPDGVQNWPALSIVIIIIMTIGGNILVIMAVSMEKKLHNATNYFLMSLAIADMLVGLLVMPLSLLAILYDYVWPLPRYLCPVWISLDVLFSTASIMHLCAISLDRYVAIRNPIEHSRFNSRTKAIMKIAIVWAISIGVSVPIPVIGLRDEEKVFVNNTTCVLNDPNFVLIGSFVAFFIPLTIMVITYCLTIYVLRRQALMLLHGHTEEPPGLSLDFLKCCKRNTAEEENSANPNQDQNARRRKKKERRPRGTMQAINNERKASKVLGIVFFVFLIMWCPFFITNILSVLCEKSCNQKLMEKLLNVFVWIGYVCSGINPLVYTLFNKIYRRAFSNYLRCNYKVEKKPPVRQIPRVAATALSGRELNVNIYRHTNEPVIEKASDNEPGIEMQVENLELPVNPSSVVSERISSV

Assay [10] addresses D(4) dopamine receptor (Homo sapiens) (UniProt P21917).
Assay [11] deals with Mu-type opioid receptor (Homo sapiens) (UniProt P35372).
Assay [12] has as its target T1, GABA-A receptor; anion channel (Rattus norvegicus). This is another data set of the same source.
In assay [13] the target is 5-hydroxytryptamine receptor 2B (Homo sapiens, UniProt P41595).
In assay [14] the target is 5-hydroxytryptamine receptor 7 (Homo sapiens, UniProt P34969).
Assay [15] deals with Alpha-1A adrenergic receptor (Homo sapiens) (UniProt P35348).

A word on the inhibition: it is the drop in the measured response relative to a control, in per cent.

Sequence of 5-hydroxytryptamine receptor 2B (P41595 whole entry): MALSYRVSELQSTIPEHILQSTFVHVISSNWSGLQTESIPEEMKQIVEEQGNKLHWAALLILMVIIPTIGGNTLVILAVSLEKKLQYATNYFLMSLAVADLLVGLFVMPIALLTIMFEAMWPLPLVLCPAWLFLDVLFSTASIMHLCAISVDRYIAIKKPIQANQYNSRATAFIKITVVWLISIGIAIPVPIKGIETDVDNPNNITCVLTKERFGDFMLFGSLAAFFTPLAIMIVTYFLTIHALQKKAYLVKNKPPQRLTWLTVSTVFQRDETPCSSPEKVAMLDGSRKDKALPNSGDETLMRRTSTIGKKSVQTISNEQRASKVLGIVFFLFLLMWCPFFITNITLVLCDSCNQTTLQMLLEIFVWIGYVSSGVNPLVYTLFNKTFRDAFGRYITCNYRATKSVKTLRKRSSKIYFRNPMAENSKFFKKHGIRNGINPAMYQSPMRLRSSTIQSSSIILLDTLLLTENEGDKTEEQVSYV
Sequence of Mu-type opioid receptor (Homo sapiens) (P35372 whole entry): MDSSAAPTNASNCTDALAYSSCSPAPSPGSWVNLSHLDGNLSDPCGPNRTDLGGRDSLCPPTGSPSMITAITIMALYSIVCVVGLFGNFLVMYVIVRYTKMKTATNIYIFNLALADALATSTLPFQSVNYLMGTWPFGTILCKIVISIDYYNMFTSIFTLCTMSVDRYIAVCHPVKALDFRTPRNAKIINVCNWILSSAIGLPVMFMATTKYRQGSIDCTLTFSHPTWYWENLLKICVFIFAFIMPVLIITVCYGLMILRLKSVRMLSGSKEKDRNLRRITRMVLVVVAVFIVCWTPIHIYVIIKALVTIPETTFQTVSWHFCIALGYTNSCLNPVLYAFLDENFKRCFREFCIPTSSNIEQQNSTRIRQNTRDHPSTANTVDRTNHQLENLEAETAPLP
Sequence of 5-hydroxytryptamine receptor 7 (P34969 whole entry): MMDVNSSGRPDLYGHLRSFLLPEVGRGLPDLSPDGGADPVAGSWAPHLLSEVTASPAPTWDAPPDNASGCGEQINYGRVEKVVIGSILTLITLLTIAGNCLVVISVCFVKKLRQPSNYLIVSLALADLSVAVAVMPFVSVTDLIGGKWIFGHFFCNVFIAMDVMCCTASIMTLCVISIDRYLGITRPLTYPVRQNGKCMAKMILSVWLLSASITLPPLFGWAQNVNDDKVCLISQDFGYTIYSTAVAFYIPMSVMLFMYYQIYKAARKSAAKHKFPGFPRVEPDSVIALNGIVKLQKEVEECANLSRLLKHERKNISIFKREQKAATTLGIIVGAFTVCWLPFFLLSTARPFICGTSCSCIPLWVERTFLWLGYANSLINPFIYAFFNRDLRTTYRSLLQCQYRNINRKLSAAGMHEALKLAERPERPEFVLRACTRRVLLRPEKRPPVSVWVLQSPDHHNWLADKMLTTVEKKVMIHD
Sequence of D(4) dopamine receptor (Homo sapiens) (P21917 whole entry): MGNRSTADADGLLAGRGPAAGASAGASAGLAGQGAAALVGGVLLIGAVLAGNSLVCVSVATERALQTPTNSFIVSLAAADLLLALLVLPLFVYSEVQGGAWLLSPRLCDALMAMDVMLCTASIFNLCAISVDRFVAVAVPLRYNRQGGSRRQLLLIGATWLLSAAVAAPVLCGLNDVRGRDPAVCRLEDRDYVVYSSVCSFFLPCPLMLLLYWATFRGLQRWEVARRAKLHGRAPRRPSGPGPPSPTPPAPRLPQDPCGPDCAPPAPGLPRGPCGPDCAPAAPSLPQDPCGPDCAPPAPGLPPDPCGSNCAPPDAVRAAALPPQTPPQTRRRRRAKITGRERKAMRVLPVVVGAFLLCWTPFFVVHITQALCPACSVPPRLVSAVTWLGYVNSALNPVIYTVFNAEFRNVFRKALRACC
Sequence of Sodium-dependent noradrenaline transporter (Homo sapiens) (P23975 whole entry): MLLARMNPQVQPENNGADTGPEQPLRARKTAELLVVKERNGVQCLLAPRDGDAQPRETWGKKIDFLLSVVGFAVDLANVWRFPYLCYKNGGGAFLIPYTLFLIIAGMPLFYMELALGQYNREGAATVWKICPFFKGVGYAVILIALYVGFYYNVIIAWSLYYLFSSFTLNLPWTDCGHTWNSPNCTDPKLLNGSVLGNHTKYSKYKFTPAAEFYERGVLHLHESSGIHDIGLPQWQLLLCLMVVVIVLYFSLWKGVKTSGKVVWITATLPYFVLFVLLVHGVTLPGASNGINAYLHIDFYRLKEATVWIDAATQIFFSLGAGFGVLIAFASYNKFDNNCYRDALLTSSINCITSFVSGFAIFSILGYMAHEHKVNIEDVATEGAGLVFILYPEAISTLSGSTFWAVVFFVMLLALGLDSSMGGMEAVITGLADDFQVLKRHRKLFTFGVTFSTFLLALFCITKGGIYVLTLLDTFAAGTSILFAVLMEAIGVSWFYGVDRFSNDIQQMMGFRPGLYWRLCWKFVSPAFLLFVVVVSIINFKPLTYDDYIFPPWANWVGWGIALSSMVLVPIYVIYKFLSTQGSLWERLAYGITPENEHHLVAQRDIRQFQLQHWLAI
Sequence of Alpha-1A adrenergic receptor (Homo sapiens) (P35348 whole entry): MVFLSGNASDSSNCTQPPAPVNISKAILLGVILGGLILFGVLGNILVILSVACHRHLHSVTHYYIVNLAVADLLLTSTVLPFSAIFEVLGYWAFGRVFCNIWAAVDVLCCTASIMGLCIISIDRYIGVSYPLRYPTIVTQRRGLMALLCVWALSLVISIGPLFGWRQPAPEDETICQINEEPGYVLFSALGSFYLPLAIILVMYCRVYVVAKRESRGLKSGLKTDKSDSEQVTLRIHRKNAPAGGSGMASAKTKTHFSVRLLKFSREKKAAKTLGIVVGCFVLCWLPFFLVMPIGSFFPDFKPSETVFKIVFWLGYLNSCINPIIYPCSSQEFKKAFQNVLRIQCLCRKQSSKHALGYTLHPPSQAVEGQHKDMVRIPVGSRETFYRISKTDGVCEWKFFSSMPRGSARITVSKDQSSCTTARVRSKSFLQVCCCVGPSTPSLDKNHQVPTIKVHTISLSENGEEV
Sequence of Histamine H1 receptor (Homo sapiens) (P35367 whole entry): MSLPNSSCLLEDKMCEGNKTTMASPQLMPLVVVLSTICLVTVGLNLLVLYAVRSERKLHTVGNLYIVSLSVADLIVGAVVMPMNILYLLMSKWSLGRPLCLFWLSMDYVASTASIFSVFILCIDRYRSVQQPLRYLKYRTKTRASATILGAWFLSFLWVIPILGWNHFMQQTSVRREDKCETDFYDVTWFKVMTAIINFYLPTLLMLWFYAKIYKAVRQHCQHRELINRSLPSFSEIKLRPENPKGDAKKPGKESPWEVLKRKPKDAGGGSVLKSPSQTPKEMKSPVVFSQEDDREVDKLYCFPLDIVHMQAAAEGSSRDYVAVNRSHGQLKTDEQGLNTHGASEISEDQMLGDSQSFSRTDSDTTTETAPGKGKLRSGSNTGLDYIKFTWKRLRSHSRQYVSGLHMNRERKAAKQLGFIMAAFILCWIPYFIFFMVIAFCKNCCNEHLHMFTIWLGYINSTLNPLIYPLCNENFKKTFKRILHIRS
Sequence of 5-hydroxytryptamine receptor 1B (Homo sapiens) (P28222 whole entry): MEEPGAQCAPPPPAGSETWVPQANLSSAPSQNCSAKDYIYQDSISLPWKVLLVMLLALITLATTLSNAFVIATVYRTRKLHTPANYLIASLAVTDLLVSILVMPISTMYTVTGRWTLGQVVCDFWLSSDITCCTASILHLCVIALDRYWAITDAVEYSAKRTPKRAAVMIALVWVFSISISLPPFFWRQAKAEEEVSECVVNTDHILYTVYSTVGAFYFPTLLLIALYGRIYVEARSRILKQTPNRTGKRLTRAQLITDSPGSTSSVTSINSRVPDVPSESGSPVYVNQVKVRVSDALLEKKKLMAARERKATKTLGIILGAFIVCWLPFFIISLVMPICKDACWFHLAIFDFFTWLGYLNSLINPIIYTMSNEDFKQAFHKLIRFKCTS
Sequence of Beta-2 adrenergic receptor (Homo sapiens) (P07550 whole entry, looked up): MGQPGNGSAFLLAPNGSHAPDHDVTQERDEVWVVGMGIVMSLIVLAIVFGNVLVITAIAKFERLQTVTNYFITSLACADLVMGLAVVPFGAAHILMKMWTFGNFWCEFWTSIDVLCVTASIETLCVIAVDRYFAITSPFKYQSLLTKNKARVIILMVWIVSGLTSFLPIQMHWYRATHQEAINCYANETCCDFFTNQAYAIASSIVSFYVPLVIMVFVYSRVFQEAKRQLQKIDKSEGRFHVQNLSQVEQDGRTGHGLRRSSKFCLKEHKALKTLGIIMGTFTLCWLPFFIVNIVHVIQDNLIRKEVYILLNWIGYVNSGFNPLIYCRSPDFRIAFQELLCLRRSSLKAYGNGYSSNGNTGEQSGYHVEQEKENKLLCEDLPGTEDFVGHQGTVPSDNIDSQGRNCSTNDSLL

For the compound `c1ccc(C2CCN(c3cnc4c(N5CCOCC5)nccn34)CC2)cc1`, the inhibition in assay [1] was 59.8%; in assay [2], 8.86%; in [3], 11.2%; in [4] it was 17.4%; in [5], 8.68%; in [6], 25.7%. For the same compound, the inhibition in assay [7] is 9.38%; in assay [8], 23.7%; in assay [9] it was 5.92%; in assay [10], 0.44%; in [11], 19.6%; in [12], 22.2%. Moreover, the inhibition was 17.7% in assay [13], 20.2% in assay [14] and 22.5% in assay [15].

For `COCCc1ccc(-c2c(C)nc3c(N4CCOCC4)ccnn23)cn1` [JNJ-42396302], the inhibition in [1] is 0.32%; in assay [2] it was -1.12%; in [3], 24.6%; in [4], 16%; in [5], -0.76%; in [6] it was 22.9%. Further, the inhibition in assay [7] is 4.69%; in assay [8], 2.83%; in assay [9] it was 68.2%; in [10] it was -3.39%; in assay [11], -1.51%; in assay [12] it was 34%. The inhibition was 52.2% in assay [13], 96.1% in assay [14] and 23% in [15].
